Read-outs that look alike come from different tables or passages of the source.
## C[C@H]1C[C@H]2[C@@H]3CCC4=CC(=O)C=C[C@]4(C)[C@@]3(F)[C@@H](O)C[C@]2(C)[C@@]1(O)C(=O)COP(=O)([O-])[O-].[Na+].[Na+] [betamethasone sodium phosphate]
N2-W (nitrogen-bubbled purified water), 4° C. 1 month
  pair theoritical value % Mean: 107.68%
N2-W (nitrogen-bubbled purified water), 4° C. 2 weeks
  pair theoritical value % Mean: 99.20%
N2-W (nitrogen-bubbled purified water), 4° C. 4 month
  pair theoritical value % Mean: 100.06%
N2-W (nitrogen-bubbled purified water), 4° C. 6 month
  pair theoritical value % Mean: 98.27%
N2-W (nitrogen-bubbled purified water), 40° C. 1 month
  pair theoritical value % Mean: 85.82%
N2-W (nitrogen-bubbled purified water), 40° C. 4 month
  pair theoritical value % Mean: 100.30%
N2-W (nitrogen-bubbled purified water), 50° C. 1 month
  pair theoritical value % Mean: 89.72%
N2-W (nitrogen-bubbled purified water), 50° C. 4 month
  pair theoritical value % Mean: 77.62%
N2-W (nitrogen-bubbled purified water), 60° C. 1 month
  pair theoritical value % Mean: 38.91%
N2-W (nitrogen-bubbled purified water), 60° C. 2 weeks
  pair theoritical value % Mean: 91.76%
N2-W (nitrogen-bubbled purified water), 60° C. 4 month
  pair theoritical value % Mean: 41.97%
W (purified water), 4° C. 1 month
  pair theoritical value % Mean: 101.42%
W (purified water), 4° C. 2 weeks
  pair theoritical value % Mean: 101.05%
W (purified water), 4° C. 4 month
  pair theoritical value % Mean: 110.24%
W (purified water), 4° C. 6 month
  pair theoritical value % Mean: 98.01%
W (purified water), 40° C. 1 month
  pair theoritical value % Mean: 96.79%
W (purified water), 40° C. 4 month
  pair theoritical value % Mean: 100.99%
W (purified water), 50° C. 1 month
  pair theoritical value % Mean: 78.74%
W (purified water), 50° C. 4 month
  pair theoritical value % Mean: 70.87%
W (purified water), 60° C. 1 month
  pair theoritical value % Mean: 33.60%
W (purified water), 60° C. 2 weeks
  pair theoritical value % Mean: 85.69%
W (purified water), 60° C. 4 month
  pair theoritical value % Mean: 17.67%
pH 2, 4° C. 1 month
  pair theoritical value % Mean: 81.61%
pH 2, 4° C. 2 weeks
  pair theoritical value % Mean: 75.50%
pH 2, 4° C. 4 month
  pair theoritical value % Mean: 121.42%
pH 2, 40° C. 1 month
  pair theoritical value % Mean: 62.65%
pH 2, 40° C. 4 month
  pair theoritical value % Mean: 57.15%
pH 2, 40° C. 6 month
  pair theoritical value % Mean: 33.20%
pH 2, 50° C. 1 month
  pair theoritical value % Mean: 55.83%
pH 2, 50° C. 4 month
  pair theoritical value % Mean: 22.44%
pH 2, 60° C. 1 month
  pair theoritical value % Mean: 14.90%
pH 2, 60° C. 2 weeks
  pair theoritical value % Mean: 42.03%
pH 2, 60° C. 4 month
  pair theoritical value % Mean: 2.79%
pH 3, 4° C. 1 month
  pair theoritical value % Mean: 82.46%
pH 3, 4° C. 2 weeks
  pair theoritical value % Mean: 85.23%
pH 3, 4° C. 4 month
  pair theoritical value % Mean: 104.26%
pH 3, 40° C. 1 month
  pair theoritical value % Mean: 82.48%
pH 3, 40° C. 4 month
  pair theoritical value % Mean: 73.33%
pH 3, 40° C. 6 month
  pair theoritical value % Mean: 50.00%
pH 3, 50° C. 1 month
  pair theoritical value % Mean: 64.66%
pH 3, 50° C. 4 month
  pair theoritical value % Mean: 32.84%
pH 3, 60° C. 1 month
  pair theoritical value % Mean: 17.55%
pH 3, 60° C. 2 weeks
  pair theoritical value % Mean: 50.37%
pH 3, 60° C. 4 month
  pair theoritical value % Mean: 3.46%
pH 4, 4° C. 1 month
  pair theoritical value % Mean: 95.85%
pH 4, 4° C. 2 weeks
  pair theoritical value % Mean: 89.42%
pH 4, 4° C. 4 month
  pair theoritical value % Mean: 108.15%
pH 4, 4° C. 6 month
  pair theoritical value % Mean: 81.32%
pH 4, 40° C. 1 month
  pair theoritical value % Mean: 81.36%
pH 4, 40° C. 4 month
  pair theoritical value % Mean: 77.80%
pH 4, 40° C. 6 month
  pair theoritical value % Mean: 53.22%
pH 4, 50° C. 1 month
  pair theoritical value % Mean: 63.08%
pH 4, 50° C. 4 month
  pair theoritical value % Mean: 31.80%
pH 4, 60° C. 1 month
  pair theoritical value % Mean: 19.17%
pH 4, 60° C. 2 weeks
  pair theoritical value % Mean: 52.38%
pH 4, 60° C. 4 month
  pair theoritical value % Mean: 3.38%
pH 5, 4° C. 1 month
  pair theoritical value % Mean: 93.36%
pH 5, 4° C. 2 weeks
  pair theoritical value % Mean: 94.34%
pH 5, 4° C. 4 month
  pair theoritical value % Mean: 109.24%
pH 5, 4° C. 6 month
  pair theoritical value % Mean: 90.85%
pH 5, 40° C. 1 month
  pair theoritical value % Mean: 78.88%
pH 5, 40° C. 4 month
  pair theoritical value % Mean: 82.09%
pH 5, 50° C. 1 month
  pair theoritical value % Mean: 75.05%
pH 5, 50° C. 4 month
  pair theoritical value % Mean: 32.88%
pH 5, 60° C. 1 month
  pair theoritical value % Mean: 17.09%
pH 5, 60° C. 2 weeks
  pair theoritical value % Mean: 56.51%
pH 5, 60° C. 4 month
  pair theoritical value % Mean: 3.34%
pH 6, 4° C. 1 month
  pair theoritical value % Mean: 104.98%
pH 6, 4° C. 2 weeks
  pair theoritical value % Mean: 98.90%
pH 6, 4° C. 4 month
  pair theoritical value % Mean: 107.46%
pH 6, 4° C. 6 month
  pair theoritical value % Mean: 97.60%
pH 6, 40° C. 1 month
  pair theoritical value % Mean: 86.51%
pH 6, 40° C. 4 month
  pair theoritical value % Mean: 89.24%
pH 6, 50° C. 1 month
  pair theoritical value % Mean: 75.38%
pH 6, 50° C. 4 month
  pair theoritical value % Mean: 41.48%
pH 6, 60° C. 1 month
  pair theoritical value % Mean: 25.28%
pH 6, 60° C. 2 weeks
  pair theoritical value % Mean: 69.99%
pH 6, 60° C. 4 month
  pair theoritical value % Mean: 5.85%
pH 7, 4° C. 1 month
  pair theoritical value % Mean: 110.30%
pH 7, 4° C. 2 weeks
  pair theoritical value % Mean: 100.23%
pH 7, 4° C. 4 month
  pair theoritical value % Mean: 105.27%
pH 7, 4° C. 6 month
  pair theoritical value % Mean: 101.38%
pH 7, 40° C. 1 month
  pair theoritical value % Mean: 89.32%
pH 7, 40° C. 4 month
  pair theoritical value % Mean: 102.71%
pH 7, 50° C. 1 month
  pair theoritical value % Mean: 86.96%
pH 7, 50° C. 4 month
  pair theoritical value % Mean: 66.49%
pH 7, 60° C. 1 month
  pair theoritical value % Mean: 36.13%
pH 7, 60° C. 2 weeks
  pair theoritical value % Mean: 87.22%
pH 7, 60° C. 4 month
  pair theoritical value % Mean: 25.71%
pH 8, 4° C. 1 month
  pair theoritical value % Mean: 97.51%
pH 8, 4° C. 2 weeks
  pair theoritical value % Mean: 104.91%
pH 8, 4° C. 4 month
  pair theoritical value % Mean: 108.32%
pH 8, 4° C. 6 month
  pair theoritical value % Mean: 103.29%
pH 8, 40° C. 1 month
  pair theoritical value % Mean: 90.10%
pH 8, 40° C. 4 month
  pair theoritical value % Mean: 106.12%
pH 8, 50° C. 1 month
  pair theoritical value % Mean: 103.57%
pH 8, 50° C. 4 month
  pair theoritical value % Mean: 83.79%
pH 8, 60° C. 1 month
  pair theoritical value % Mean: 45.01%
pH 8, 60° C. 2 weeks
  pair theoritical value % Mean: 95.80%
pH 8, 60° C. 4 month
  pair theoritical value % Mean: 61.99%

— patent US8652522B2, “Pharmaceutical composition of an iontophoresis” (Teikoku Seiyaku Co., Ltd., priority 2009, dated 2014)
